For 21 molecules, T/C results are on record in PubChem BioAssay AID256 (DTP/NCI, 2004).

Each structure is given as a SMILES string. Values joined by “and” are separate entries in the source; they are usually repeats but may differ in a detail not shown here. Equal entries are not always repeated. Inconclusive results and toxic doses are left out.

The test system of the experiment is CD2F1 mice, L1210 leukemia ip, survival T/C. Nature of the experiment: NCI In Vivo Anticancer Drug Screen. Data for tumor model L1210 Leukemia (intraperitoneal) in CD2F1 (CDF1) mice. As to conditions: higher = longer survival. In outline: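 Transplantable tumor in mice; compound-treated vs vehicle-treated groups. Read-out = treated/control ratio of the measured endpoint.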

The mark [1] stands for this setting: endpoint: mean survival time, dose: 100.0 mg/kg/injection, schedule: Q04DX002 (ip), vehicle: saline with Tween-80.
[2] abbreviates: endpoint: mean survival time, dose: 200.0 mg/kg/injection, schedule: Q04DX002 (ip), vehicle: saline with Tween-80.
[3] abbreviates: endpoint: mean survival time, dose: 400.0 mg/kg/injection, schedule: Q04DX002 (ip), vehicle: saline with Tween-80.
The mark [4] stands for this setting: endpoint: mean survival time, dose: 12.5 mg/kg/injection, schedule: Q01DX009 (ip), vehicle: saline with Tween-80.
The mark [5] stands for this setting: endpoint: mean survival time, dose: 25.0 mg/kg/injection, schedule: Q01DX009 (ip), vehicle: saline with Tween-80.
The mark [6] stands for this setting: endpoint: mean survival time, dose: 50.0 mg/kg/injection, schedule: Q01DX009 (ip), vehicle: saline with Tween-80.
Where [7] appears, read: endpoint: mean survival time, dose: 100.0 mg/kg/injection, schedule: Q01DX009 (ip), vehicle: saline with Tween-80.
Setting [8] is: endpoint: mean survival time, dose: 200.0 mg/kg/injection, schedule: Q01DX009 (ip), vehicle: saline with Tween-80.
Setting [9] is: endpoint: mean survival time, dose: 100.0 mg/kg/injection, schedule: Q04DX003 (ip), vehicle: saline with Tween-80.
Where [10] appears, read: endpoint: mean survival time, dose: 400.0 mg/kg/injection, schedule: Q04DX003 (ip), vehicle: saline with Tween-80.
Where [11] appears, read: endpoint: mean survival time, dose: 12.5 mg/kg/injection, schedule: Q01DX005 (ip), vehicle: distilled water + Tween-80.
The mark [12] stands for this setting: endpoint: mean survival time, dose: 25.0 mg/kg/injection, schedule: Q01DX005 (ip), vehicle: distilled water + Tween-80.
The mark [13] stands for this setting: endpoint: mean survival time, dose: 75.0 mg/kg/injection, schedule: Q01DX001 (ip), vehicle: saline.
[14] abbreviates: endpoint: mean survival time, dose: 150.0 mg/kg/injection, schedule: Q01DX001 (ip), vehicle: saline.
Where [15] appears, read: endpoint: mean survival time, dose: 300.0 mg/kg/injection, schedule: Q01DX001 (ip), vehicle: saline.
Where [16] appears, read: endpoint: mean survival time, dose: 100.0 mg/kg/injection, schedule: Q01DX001 (ip), vehicle: saline.
[17] abbreviates: endpoint: mean survival time, dose: 200.0 mg/kg/injection, schedule: Q01DX001 (ip), vehicle: saline.
Setting [18] is: endpoint: mean survival time, dose: 400.0 mg/kg/injection, schedule: Q01DX001 (ip), vehicle: saline.

Turning to `Nc1nc2c(ncn2-c2cccc(NC(=O)Nc3ccc(S(=O)(=O)F)cc3)c2)c(=O)[nH]1` (tested in a mixture with another compound), the T/C under setting [1] was 94 % of control, the T/C under setting [2] was 105 % of control and the T/C under setting [3] was 86 % of control.

In the case of `COc1ccc(CC(N)C(=O)NC2C(COP(=O)(O)OC3CC(n4cc(C)c(=O)[nH]c4=O)OC3CO)OC(n3cnc4c(N(C)C)ncnc43)C2O)cc1` (centres undefined), the T/C was 96 % of control (endpoint: median survival time, dose: 5.63 mg/kg/injection, schedule: Q01DX005 (ip), vehicle: water); 96 % of control (endpoint: median survival time, dose: 11.25 mg/kg/injection, schedule: Q01DX005 (ip), vehicle: water); 109 % of control (endpoint: median survival time, dose: 21.9 mg/kg/injection, schedule: Q01DX005 (ip), vehicle: saline); 94 % of control (endpoint: median survival time, dose: 22.5 mg/kg/injection, schedule: Q01DX005 (ip), vehicle: water); 106 % of control (endpoint: median survival time, dose: 43.8 mg/kg/injection, schedule: Q01DX005 (ip), vehicle: saline); 100 % of control (endpoint: median survival time, dose: 45.0 mg/kg/injection, schedule: Q01DX005 (ip), vehicle: water). Moreover, the T/C is, setting by setting: (endpoint: median survival time, dose: 87.5 mg/kg/injection, schedule: Q01DX005 (ip), vehicle: saline) 108 % of control; (endpoint: median survival time, dose: 90.0 mg/kg/injection, schedule: Q01DX005 (ip), vehicle: water) 104 % of control; (endpoint: median survival time, dose: 175.0 mg/kg/injection, schedule: Q01DX005 (ip), vehicle: saline) 102 % of control.

On to `Brc1cscc1-c1cccc2ccccc12`, for which the T/C by setting is: under setting [4], 95 % of control; under setting [5], 95 % of control; under setting [6], 95 % of control.

As for `Nc1nc(-c2cccc3ccccc23)cc2ccccc12`, the T/C under setting [4] was 89 % of control and 98 % of control; the T/C under setting [5] is 101 % of control and 102 % of control; the T/C under setting [6] is 104 % of control and 105 % of control; the T/C under setting [7] is 112 % of control and 97 % of control; the T/C under setting [8] was 118 % of control and 106 % of control.

Take `O=C(Nc1ccc(NC(=O)c2ccccc2)c2ccccc12)c1ccccc1`: the T/C by setting is: under setting [9], 92 % of control; under setting [10], 92 % of control.

Turning to `Nc1ncnc2c1ncn2C1OC(COP(N)(N)=O)C(O)C1O` (centres undefined), the T/C reads like this: under setting [11], 105 % of control; under setting [12], 98 % of control; (endpoint: mean survival time, dose: 50.0 mg/kg/injection, schedule: Q01DX005 (ip), vehicle: distilled water + Tween-80) 96 % of control; (endpoint: mean survival time, dose: 100.0 mg/kg/injection, schedule: Q01DX005 (ip), vehicle: distilled water + Tween-80) 102 % of control; (endpoint: mean survival time, dose: 200.0 mg/kg/injection, schedule: Q01DX005 (ip), vehicle: distilled water + Tween-80) 96 % of control.

On to `CCC(c1ccc(O)c(C2CCCCC2)c1)C(CC)c1ccc(OC(=O)c2ccccc2)c(C2CCCCC2)c1` (centres undefined), for which the T/C is 109 % of control under setting [13], 100 % of control under setting [14] and 106 % of control under setting [15].

For the molecule `CN(C)C(=S)SCC(=O)O`, the T/C runs as follows: (endpoint: mean survival time, dose: 100.0 mg/kg/injection, schedule: Q04DX003 (ip), vehicle: saline) 95 % of control; (endpoint: mean survival time, dose: 200.0 mg/kg/injection, schedule: Q04DX003 (ip), vehicle: saline) 96 % of control; (endpoint: mean survival time, dose: 400.0 mg/kg/injection, schedule: Q04DX003 (ip), vehicle: saline) 102 % of control.

With `CC1(C)N=C(N)N=C(N)N1c1ccc(OCCNS(=O)(=O)c2cccc(S(=O)(=O)F)c2)c(Cl)c1`, the T/C was 108 % of control under setting [4]; 110 % of control under setting [5]; 117 % of control under setting [6]; 97 % of control (endpoint: mean survival time, dose: 100.0 mg/kg/injection, schedule: Q01DX001 (ip), vehicle: saline with Tween-80); 164 % of control under setting [7]; 97 % of control under setting [1]. For the same molecule, the T/C is, setting by setting: (endpoint: mean survival time, dose: 200.0 mg/kg/injection, schedule: Q01DX001 (ip), vehicle: saline with Tween-80) 107 % of control; under setting [8], 94 % of control; under setting [2], 108 % of control; (endpoint: mean survival time, dose: 400.0 mg/kg/injection, schedule: Q01DX001 (ip), vehicle: saline with Tween-80) 111 % of control; under setting [3], 101 % of control.

On to `COC(c1ccccc1)C(c1ccccc1)[N+]1(C)CCCCC1` (centres undefined), for which the T/C under setting [13] is 97 % of control, the T/C under setting [14] was 113 % of control and the T/C under setting [15] was 97 % of control.

For `C=C1C(=O)OC2CC(C)C3CC(O)OC(O)C3(C)CC12` (centres undefined), the T/C by setting is: (endpoint: mean survival time, dose: 3.13 mg/kg/injection, schedule: Q01DX005 (ip), vehicle: water) 88 % of control; (endpoint: mean survival time, dose: 6.25 mg/kg/injection, schedule: Q01DX005 (ip), vehicle: water) 94 % of control; (endpoint: mean survival time, dose: 12.5 mg/kg/injection, schedule: Q01DX005 (ip), vehicle: water) 102 % of control.

As for `CCCCN(CCCC)P1(=O)OCCO1`, the T/C was 103 % of control (endpoint: mean survival time, dose: 100.0 mg/kg/injection, schedule: Q04DX002 (ip), vehicle: saline); 107 % of control (endpoint: mean survival time, dose: 200.0 mg/kg/injection, schedule: Q04DX002 (ip), vehicle: saline); 98 % of control (endpoint: mean survival time, dose: 400.0 mg/kg/injection, schedule: Q04DX002 (ip), vehicle: saline).

`CC1Oc2ccccc2OC1C(=O)NN` (centres undefined): the T/C is, setting by setting: under setting [7], 92 % of control; under setting [8], 94 % of control; (endpoint: mean survival time, dose: 400.0 mg/kg/injection, schedule: Q01DX009 (ip), vehicle: saline with Tween-80) 94 % of control.

With `Cc1ccc(Cl)cc1NC(=O)CCl`, the T/C reads like this: under setting [5], 94 % of control; under setting [6], 94 % of control; under setting [7], 89 % of control and 96 % of control; under setting [9], 101 % of control; (endpoint: mean survival time, dose: 200.0 mg/kg/injection, schedule: Q04DX003 (ip), vehicle: saline with Tween-80) 95 % of control; under setting [10], 97 % of control.

Consider `CC(=O)OCC1OC(N2C(=O)/C(=C/c3ccc(Cl)cc3)SC2=S)C(OC(C)=O)C(OC(C)=O)C1OC(C)=O` (centres undefined), for which the T/C is 102 % of control (endpoint: mean survival time, dose: 3.13 mg/kg/injection, schedule: Q01DX005 (ip), vehicle: distilled water + Tween-80); 96 % of control (endpoint: mean survival time, dose: 6.25 mg/kg/injection, schedule: Q01DX005 (ip), vehicle: distilled water + Tween-80); 106 % of control under setting [11]; 95 % of control under setting [12].

Consider `c1ccc(CN2CCc3cc4c(cc3C2)OCO4)cc1`, for which the T/C by setting is: (endpoint: mean survival time, dose: 37.5 mg/kg/injection, schedule: Q01DX001 (ip), vehicle: saline) 102 % of control; under setting [13], 102 % of control; under setting [14], 90 % of control.

As to `CCC(C)C1NC(=O)C(NC(=O)c2c3nc4c(C(=O)NC5C(=O)NC(C(C)CC)C(=O)N6CCCC6C(=O)N(C)CC(=O)N(C)C(C(C)C)C(=O)OC5C)cc([N+](=O)[O-])c(C)c4oc-3c(C)c(=O)c2N)C(C)OC(=O)C(C(C)C)N(C)C(=O)CN(C)C(=O)C2CCCN2C1=O` (centres undefined), the T/C (endpoint: mean survival time, dose: 0.05 mg/kg/injection, schedule: Q01DX009 (ip), vehicle: water) is 107 % of control; the T/C (endpoint: mean survival time, dose: 0.1 mg/kg/injection, schedule: Q01DX009 (ip), vehicle: water) was 116 % of control; the T/C (endpoint: mean survival time, dose: 0.2 mg/kg/injection, schedule: Q01DX009 (ip), vehicle: water) was 112 % of control; the T/C (endpoint: mean survival time, dose: 0.4 mg/kg/injection, schedule: Q01DX009 (ip), vehicle: water) is 94 % of control.

For the molecule `CC(C)CCCN`, the T/C by setting is: under setting [16], 100 % of control; under setting [17], 97 % of control; under setting [18], 97 % of control.

In the case of `COc1ccc(OCC(O)CO)cc1` (centres undefined), the T/C by setting is: under setting [16], 102 % of control; under setting [17], 102 % of control; under setting [18], 97 % of control.

For the molecule `CNC(=O)OCC(COc1cc(C)ccc1C(C)C)OC(=O)NC` (centres undefined), the T/C under setting [1] was 86 % of control, the T/C under setting [2] was 93 % of control and the T/C under setting [3] is 89 % of control.

On to `CC1([N+](=O)[O-])COC(c2ccc(Cl)cc2)OC1` (centres undefined), for which the T/C was 96 % of control (endpoint: mean survival time, dose: 100.0 mg/kg/injection, schedule: Q04DX003 (ip), vehicle: Klucel (hydroxypropylcellulose) (HPC)) and 104 % of control (endpoint: mean survival time, dose: 200.0 mg/kg/injection, schedule: Q04DX003 (ip), vehicle: Klucel (hydroxypropylcellulose) (HPC)).
